{"source": "PubChem BioAssay AID270", "about": "(DTP/NCI, 2004)", "tested_on": "BDF1 mice, s.c. Lewis lung carcinoma, T/C %", "assay": "NCI In Vivo Anticancer Drug Screen. Data for tumor model Lewis Lung Carcinoma (subcutaneous) in B6D2F1 (BDF1) mice", "outline": "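The value reflects a ratio in which the treated cohort's survival time or tumour size is compared against mice receiving only vehicle.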", "key": {"[1]": {"settings": "endpoint: mean tumor weight, dose: 37.0 mg/kg/injection, schedule: Q01DX011 (ip), vehicle: other, higher = larger tumour"}, "[2]": {"settings": "endpoint: mean tumor weight, dose: 55.0 mg/kg/injection, schedule: Q01DX011 (ip), vehicle: other, higher = larger tumour"}, "[3]": {"settings": "endpoint: mean tumor weight, dose: 83.0 mg/kg/injection, schedule: Q01DX011 (ip), vehicle: other, higher = larger tumour"}, "[4]": {"settings": "endpoint: mean tumor weight, dose: 100.0 mg/kg/injection, schedule: Q01DX011 (ip), vehicle: saline, higher = larger tumour"}}, "note": "“And” between values parts separate entries of the source, which are not always exact repeats. Identical values can stand only once. Inconclusive results are not listed.", "data": [{"smiles": "O=C1NC2C(NC(=O)N2Cl)N1Cl", "note": "(configuration not stated)", "values": [{"measurement": "T/C", "setting": "endpoint: mean tumor weight, dose: 20.0 mg/kg/injection, schedule: Q01DX011 (ip), vehicle: saline, higher = larger tumour", "result": "97 % of control"}, {"measurement": "T/C", "setting": "endpoint: mean tumor weight, dose: 40.0 mg/kg/injection, schedule: Q01DX011 (ip), vehicle: saline, higher = larger tumour", "result": "114 % of control"}]}, {"smiles": "CC(=O)OC/C=C(C)/C=C/C=C(C)/C=C/C1=C(C)CCCC1(C)C", "values": [{"measurement": "T/C", "setting": "endpoint: median survival time, dose: 200.0 mg/kg/injection, schedule: Q01DX005 (ip), vehicle: saline with Tween-80, higher = longer survival", "result": "100 % of control"}]}, {"smiles": "CC(=O)[C@H]1CC[C@H]2[C@@H]3CC[C@@H]4CC(=O)CC[C@]4(C)[C@H]3[C@@H]3O[C@@H]3[C@]12C", "values": [{"measurement": "T/C", "setting": "[1]", "result": "150 % of control"}, {"measurement": "T/C", "setting": "[2]", "result": "99 % of control"}, {"measurement": "T/C", "setting": "[3]", "result": "108 % of control"}, {"measurement": "T/C", "setting": "endpoint: mean tumor weight, dose: 250.0 mg/kg/injection, schedule: Q01DX011 (ip), vehicle: other, higher = larger tumour", "result": "122 % of control"}]}, {"smiles": "COCC(O)Cn1ccnc1[N+](=O)[O-]", "note": "(configuration not stated)", "values": [{"measurement": "T/C", "setting": "endpoint: median survival time, dose: 500.0 mg/kg/injection, schedule: Q01DX001 (ip), vehicle: saline, higher = longer survival", "result": "81 % of control"}, {"measurement": "T/C", "setting": "endpoint: median survival time, dose: 600.0 mg/kg/injection, schedule: Q01DX001 (ip), vehicle: saline, higher = longer survival", "result": "77 % of control and 93 % of control"}, {"measurement": "T/C", "setting": "endpoint: median survival time, dose: 1000.0 mg/kg/injection, schedule: Q01DX001 (ip), vehicle: saline, higher = longer survival", "result": "74 % of control and 91 % of control and 94 % of control"}]}, {"smiles": "CCn1c2ccccc2c2cc(NC(=O)N(CCCl)N=O)ccc21", "values": [{"measurement": "T/C", "setting": "endpoint: median survival time, dose: 50.0 mg/kg/injection, schedule: Q01DX001 (ip), vehicle: saline with Tween-80, higher = longer survival", "result": "89 % of control"}, {"measurement": "T/C", "setting": "endpoint: median survival time, dose: 100.0 mg/kg/injection, schedule: Q01DX001 (ip), vehicle: saline with Tween-80, higher = longer survival", "result": "96 % of control"}]}, {"smiles": "C=C(C)[C@H]1Cc2c(ccc3c2O[C@@H]2COc4cc(OC)c(OC)cc4[C@@H]2C3=O)O1", "values": [{"measurement": "T/C", "setting": "endpoint: mean tumor weight, dose: 0.25 mg/kg/injection, schedule: Q01DX011 (ip), vehicle: water, higher = larger tumour", "result": "76 % of control"}, {"measurement": "T/C", "setting": "endpoint: mean tumor weight, dose: 0.5 mg/kg/injection, schedule: Q01DX011 (ip), vehicle: water, higher = larger tumour", "result": "65 % of control"}, {"measurement": "T/C", "setting": "endpoint: mean tumor weight, dose: 1.0 mg/kg/injection, schedule: Q01DX011 (ip), vehicle: water, higher = larger tumour", "result": "60 % of control"}]}, {"smiles": "c1ccc(OP(Oc2ccccc2)Oc2ccccc2)cc1", "values": [{"measurement": "T/C", "setting": "[1]", "result": "110 % of control"}, {"measurement": "T/C", "setting": "[2]", "result": "103 % of control"}, {"measurement": "T/C", "setting": "[3]", "result": "91 % of control"}, {"measurement": "T/C", "setting": "endpoint: mean tumor weight, dose: 125.0 mg/kg/injection, schedule: Q01DX011 (ip), vehicle: other, higher = larger tumour", "result": "79 % of control"}]}, {"smiles": "CCC(c1ccc(OC(=O)Cc2ccc(N(CCCl)CCCl)cc2)cc1)C(CC)c1ccc(OC(=O)Cc2ccc(N(CCCl)CCCl)cc2)cc1", "note": "(configuration not stated)", "values": [{"measurement": "T/C", "setting": "endpoint: median survival time, dose: 6.25 mg/kg/injection, schedule: Q01DX009 (ip), vehicle: Klucel (hydroxypropylcellulose) (HPC), higher = longer survival", "result": "102 % of control"}, {"measurement": "T/C", "setting": "endpoint: median survival time, dose: 12.5 mg/kg/injection, schedule: Q01DX009 (ip), vehicle: Klucel (hydroxypropylcellulose) (HPC), higher = longer survival", "result": "104 % of control"}, {"measurement": "T/C", "setting": "endpoint: median survival time, dose: 25.0 mg/kg/injection, schedule: Q01DX009 (ip), vehicle: Klucel (hydroxypropylcellulose) (HPC), higher = longer survival", "result": "104 % of control"}, {"measurement": "T/C", "setting": "endpoint: median survival time, dose: 25.0 mg/kg/injection, schedule: Q02DX009 (ip), vehicle: saline with Tween-80, higher = longer survival", "result": "86 % of control"}, {"measurement": "T/C", "setting": "endpoint: median survival time, dose: 50.0 mg/kg/injection, schedule: Q02DX009 (ip), vehicle: saline with Tween-80, higher = longer survival", "result": "88 % of control"}, {"measurement": "T/C", "setting": "endpoint: median survival time, dose: 100.0 mg/kg/injection, schedule: Q02DX009 (ip), vehicle: saline with Tween-80, higher = longer survival", "result": "94 % of control"}]}, {"smiles": "COC1C(O)CC(OC2CC(Oc3cc4cc5c(c(O)c4c(O)c3C)C(=O)[C@@H](OC3CC(OC4CC(OC6CC(C)(O)C(OC(C)=O)C(C)O6)C(O)C(C)O4)C(O)C(C)O3)[C@H]([C@H](OC)C(=O)[C@@H](O)[C@@H](C)O)C5)OC(C)C2OC(C)=O)OC1C", "note": "(some centres not stated)", "values": [{"measurement": "T/C", "setting": "endpoint: mean tumor weight, dose: 33.0 micrograms/kg/injection, schedule: Q01DX011 (ip), vehicle: saline with Tween-80, higher = larger tumour", "result": "93 % of control"}, {"measurement": "T/C", "setting": "endpoint: mean tumor weight, dose: 65.0 micrograms/kg/injection, schedule: Q01DX011 (ip), vehicle: saline with Tween-80, higher = larger tumour", "result": "82 % of control"}, {"measurement": "T/C", "setting": "endpoint: mean tumor weight, dose: 130.0 micrograms/kg/injection, schedule: Q01DX011 (ip), vehicle: saline with Tween-80, higher = larger tumour", "result": "66 % of control"}, {"measurement": "T/C", "setting": "endpoint: median survival time, dose: 0.02 mg/kg/injection, schedule: Q01DX011 (ip), vehicle: other, higher = longer survival", "result": "107 % of control"}]}, {"smiles": "NC(=O)n1cccn1", "values": [{"measurement": "T/C", "setting": "endpoint: mean tumor weight, dose: 25.0 mg/kg/injection, schedule: Q01DX011 (ip), vehicle: saline, higher = larger tumour", "result": "76 % of control"}, {"measurement": "T/C", "setting": "endpoint: mean tumor weight, dose: 25.0 mg/kg/injection, schedule: Q01DX011 (ip), vehicle: water, higher = larger tumour", "result": "88 % of control"}, {"measurement": "T/C", "setting": "endpoint: mean tumor weight, dose: 50.0 mg/kg/injection, schedule: Q01DX011 (ip), vehicle: saline, higher = larger tumour", "result": "61 % of control"}, {"measurement": "T/C", "setting": "endpoint: mean tumor weight, dose: 50.0 mg/kg/injection, schedule: Q01DX011 (ip), vehicle: water, higher = larger tumour", "result": "61 % of control"}, {"measurement": "T/C", "setting": "[4]", "result": "49 % of control"}, {"measurement": "T/C", "setting": "endpoint: mean tumor weight, dose: 100.0 mg/kg/injection, schedule: Q01DX011 (ip), vehicle: water, higher = larger tumour", "result": "39 % of control"}]}, {"smiles": "N=C(N)N", "values": [{"measurement": "T/C", "setting": "[4]", "result": "114 % of control"}, {"measurement": "T/C", "setting": "endpoint: mean tumor weight, dose: 200.0 mg/kg/injection, schedule: Q01DX011 (ip), vehicle: saline, higher = larger tumour", "result": "89 % of control"}]}]}
